# According to US20260285850A1, “SUBSTITUTED OXAZOLIDINONES AND IMIDAZOLINONES AS HERBICIDES” (FMC CORPORATION, priority 2023, published 2026):
# Legend:
# Assay type in all cases: in vivo
# kochia (Bassia scoparia) [1] = test: Test A postemergence application, visual injury rating 0-100
# In short: (§1)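 Compounds formulated in a non-phytotoxic solvent with surfactant are sprayed onto soil of freshly planted loam-sand pots ahead of emergence, or onto emerged plants 2-10 cm tall. After a 10-day greenhouse period, each species is scored visually for injury against untreated controls.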
# [2] = system: ragweed (common ragweed, Ambrosia artemisiifolia); test: as above
# In short: as §1
# [3] = system: horseweed (Erigeron canadensis); test: as above
# In short: as §1
# [4] = system: green foxtail (Setaria viridis); test: as above
# In short: as §1
# corn (Zea mays) [5] = test: as above
# In short: as §1
# [6] = system: ryegrass, Italian (italian ryegrass, Lolium multiflorum); test: as above
# In short: as §1
# [7] = system: palmer (palmer amaranth, palmer pigweed, Amaranthus palmeri); test: as above
# In short: as §1
# [8] = system: blackgrass (Alopecurus myosuroides); test: as above
# In short: as §1
# soybean (Glycine max) [9] = test: as above
# In short: as §1
# [10] = system: oat, wild (wild oat, Avena fatua); test: as above
# In short: as §1
# [11] = system: barnyardgrass (Echinochloa crus-galli); test: as above
# In short: as §1
# [12] = system: galium (catchweed bedstraw, Galium aparine); test: as above
# In short: as §1
# [13] = system: wheat (Triticum aestivum); test: as above
# In short: as §1
# kochia (Bassia scoparia) [14] = test: Test A preemergence soil spray, visual injury rating 0-100; conditions: 10 days
# In short: as §1
# [15] = system: ragweed (common ragweed, Ambrosia artemisiifolia); test: as above; conditions: 10 days
# In short: as §1
# [16] = system: green foxtail (Setaria viridis); test: as above; conditions: 10 days
# In short: as §1
# corn (Zea mays) [17] = test: as above; conditions: 10 days
# In short: as §1
# [18] = system: ryegrass, Italian (italian ryegrass, Lolium multiflorum); test: as above; conditions: 10 days
# In short: as §1
# [19] = system: palmer (palmer amaranth, palmer pigweed, Amaranthus palmeri); test: as above; conditions: 10 days
# In short: as §1
# [20] = system: blackgrass (Alopecurus myosuroides); test: as above; conditions: 10 days
# In short: as §1
# soybean (Glycine max) [21] = test: as above; conditions: 10 days
# In short: as §1
# [22] = system: oat, wild (wild oat, Avena fatua); test: as above; conditions: 10 days
# In short: as §1
# [23] = system: barnyardgrass (Echinochloa crus-galli); test: as above; conditions: 10 days
# In short: as §1
# [24] = system: wheat (Triticum aestivum); test: as above; conditions: 10 days
# In short: as §1
# [25] = system: sedge, umbrella (small-flower umbrella sedge, Cyperus difformis); test: Test B flooded paddy test, visual plant response rating 0-100; conditions: 250 g ai/ha, Flood, applied to paddy water, evaluated after 13 days
# In short: (§2)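 Each species was raised to two leaves before flooding to a 3 cm depth and dosing the water with compound. Injury was assessed by eye after 13 days under greenhouse conditions.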
# [26] = system: barnyardgrass (Echinochloa crusgalli); test: as above; conditions: 250 g ai/ha, Flood, applied to paddy water, evaluated after 13 days
# In short: as §2
# rice (Oryza sativa) = test: as above; conditions: 250 g ai/ha, Flood, applied to paddy water, evaluated after 13 days
# In short: as §2
# [27] = system: ducksalad (Heteranthera limosa); test: as above; conditions: 250 g ai/ha, Flood, applied to paddy water, evaluated after 13 days
# In short: as §2
# [28] = 62 g ai/ha, postemergence, 10 days, 0 = no effect, 100 = complete control
# [29] = Postemergence, 16 g ai/ha, greenhouse 10 days, 0 no effect, 100 complete control
# [30] = 62 g ai/ha, 0 = no effect, 100 = complete control
smiles,measurement,setting,value
CC1(C(=O)NC2C=CC(C(=O)O)C2)CN(c2cc(Cl)c(F)c(Cl)c2)C(=O)O1 (stereo not shown) [Compound 124],Kochia plant response rating (0-100),kochia (Bassia scoparia) [1]; [28],90
same,Kochia plant response rating (0 to 100 scale),kochia (Bassia scoparia) [1]; [29],30
same,Ragweed plant response rating (0-100),[2]; [28],20
same,Ragweed plant response rating (0 to 100 scale),[2]; [29],0
same,Horseweed plant response rating (0-100),[3]; [28],60
same,Horseweed plant response rating (0 to 100 scale),[3]; [29],0
same,"Foxtail, Green plant response rating (0-100)",[4]; [28],80
same,"Foxtail, Green plant response rating (0 to 100 scale)",[4]; [29],10
same,Corn plant response rating (0-100),corn (Zea mays) [5]; [28],100
same,Corn plant response rating (0 to 100 scale),corn (Zea mays) [5]; [29],60
same,"Ryegrass, Italian plant response rating (0-100)",[6]; [28],90
same,"Ryegrass, Italian plant response rating (0 to 100 scale)",[6]; [29],30
same,"Pigweed, Palmer plant response rating (0-100)",[7]; [28],70
same,"Pigweed, Palmer plant response rating (0 to 100 scale)",[7]; [29],50
same,Blackgrass plant response rating (0-100),[8]; [28],90
same,Blackgrass plant response rating (0 to 100 scale),[8]; [29],80
same,Soybean plant response rating (0-100),soybean (Glycine max) [9]; [28],70
same,Soybean plant response rating (0 to 100 scale),soybean (Glycine max) [9]; [29],40
same,"Oat, Wild plant response rating (0-100)",[10]; [28],90
same,"Oat, Wild plant response rating (0 to 100 scale)",[10]; [29],30
same,Barnyardgrass plant response rating (0-100),[11]; [28],90
same,Barnyardgrass plant response rating (0 to 100 scale),[11]; [29],70
same,Galium plant response rating (0-100),[12]; [28],90
same,Galium plant response rating (0 to 100 scale),[12]; [29],70
same,Wheat plant response rating (0-100),[13]; [28],90
same,Wheat plant response rating (0 to 100 scale),[13]; [29],80
same,Kochia plant response rating,"kochia (Bassia scoparia) [14]; 16 g ai/ha, 0 to 100 scale",0
same,Kochia plant response rating (0-100),kochia (Bassia scoparia) [14]; [30],10
same,Ragweed plant response rating,"[15]; 16 g ai/ha, 0 to 100 scale",0
same,Ragweed plant response rating (0-100),[15]; [30],0
same,"Foxtail, Green plant response rating","[16]; 16 g ai/ha, 0 to 100 scale",0
same,"Foxtail, Green plant response rating (0-100)",[16]; [30],80
same,Corn plant response rating,"corn (Zea mays) [17]; 16 g ai/ha, 0 to 100 scale",0
same,Corn plant response rating (0-100),corn (Zea mays) [17]; [30],50
same,"Ryegrass, Italian plant response rating","[18]; 16 g ai/ha, 0 to 100 scale",0
same,"Ryegrass, Italian plant response rating (0-100)",[18]; [30],70
same,"Pigweed, Palmer plant response rating","[19]; 16 g ai/ha, 0 to 100 scale",0
same,"Pigweed, Palmer plant response rating (0-100)",[19]; [30],30
same,Blackgrass plant response rating,"[20]; 16 g ai/ha, 0 to 100 scale",20
same,Blackgrass plant response rating (0-100),[20]; [30],30
same,Soybean plant response rating,"soybean (Glycine max) [21]; 16 g ai/ha, 0 to 100 scale",0
same,Soybean plant response rating (0-100),soybean (Glycine max) [21]; [30],0
same,"Oat, Wild plant response rating","[22]; 16 g ai/ha, 0 to 100 scale",0
same,"Oat, Wild plant response rating (0-100)",[22]; [30],30
same,Barnyardgrass plant response rating,"[23]; 16 g ai/ha, 0 to 100 scale",0
same,Barnyardgrass plant response rating (0-100),[23]; [30],40
same,Wheat plant response rating,"[24]; 16 g ai/ha, 0 to 100 scale",20
same,Wheat plant response rating (0-100),[24]; [30],90
same,"Plant response rating, Sedge, Umbrella (0 to 100 scale, 0 is no effect and 100 is complete control)",[25],30
same,"Plant response rating, Barnyardgrass (0 to 100 scale, 0 is no effect and 100 is complete control)",[26],10
same,"Plant response rating, Rice (0 to 100 scale, 0 is no effect and 100 is complete control)",rice (Oryza sativa),15
same,"Plant response rating, Ducksalad (0 to 100 scale, 0 is no effect and 100 is complete control)",[27],85
